{"source": "patent US7696408B2", "about": "“Method to enhance Agrobacterium-mediated transformation of plants” (Regents of the University of Minnesota, priority 1999, dated 2010)", "key": {"[1]": {"system": "soybean cot-node explants", "assay": "GUS transient expression on soybean cot-node explants after 5-day co-cultivation with Agrobacterium (T-DNA delivery)", "type": "cell-based, Glycine max", "excerpt": "For each seedling, the roots and the majority of the hypocotyl were removed approximately 3-5 mm below the cotyledonary node by cutting the hypocotyl with a scalpel (Hinchee et al., 1998). The two cotyledons were then separated by cutting vertically through the hypocotyl region resulting in two explants. The epicotyl was subsequently removed on both explants, including all primary leaves and shoot meristems, and both the axillary bud and cotyledonary node were wounded by cutting about 10 times with a scalpel blade perpendicular to the hypocotyl. After all explants in a set were wounded (about 50), they were placed in a 25×100 mm petri plate containing 50 ml co-culture suspension for 30 minutes or inoculated into the 25 ml co-cultivation/Agrobacterium suspension for 30 minutes. The explants were then cultured on an agar-solidified co-culture media (0.5%) either without the addition of a test agent (e.g., cysteine) in 15×100 mm petri plates on top a sterile Whatman®#1 filter paper; five explants per plate with adaxial side down. Five plates were stacked together and wrapped in Parafilm®M then incubated at either 22° C. or 25° C. for 5 days in the dark.\nAfter 5 days, the explants were washed in a liquid shoot induction media (B5 salts, MSIII iron stock, 3% sucrose, 3 mM MES, and filter sterilized B5 vitamins, 1.67 mg/l BAP, 100 mg/l cefotaxime, and 500 mg/l ticarcillin; pH 5.6) to remove excess Agrobacterium. Seven to ten explants from each cysteine level were washed in liquid shoot induction medium and placed in GUS histochemical stain (Jefferson et al., 1987). These explants were scored for GUS transient expression. Five to ten explants from each group were imbedded into a single 25×100 mm petri plate with solid shoot induction media (0.8% agar and agent, e.g., 400 mg/l cysteine) containing PPT concentrations of 1.33 mg/l, 3.33 mg/l, or 5.0 mg/l for selection. The plates were then incubated in a growth chamber with a fluctuating temperature between 18° C.-30° C. under a 18 hours light/6 hours dark cycle at 90-150 μE/m^2s.\nThe level of infection was scored using the GUS gene as a phenotypic marker immediately after co-culture and again after 4 weeks in shoot induction media. As it can be difficult to score the explants after co-cultivation due to the variation among explants and, in some cases, a complete staining of the target tissues, 6 categories were formed to assess the success of infection: • 4) None=There were no GUS positive sectors on any of the explants; • 5) Very low=Not all explants have GUS positive sectors, however, some have discrete foci usually seen on the hypocotyl or cot-node region. • 6) Low=More than ¾ the explants have GUS positive sectors in discrete foci on the hypocotyl and the cot-node region, but the foci are not numerous (<20). • 7) Medium=More than ½ the explants have significant GUS positive sectors at the cot-node region and hypocotyl, some seen as long lines of cells or larger sectors. • 8) Good=More than ¾ the explants have significant staining at the hypocotyl, the entire cot-node region, and on the cotyledons. […] Almost all explants have regions that are completely GUS positive. To reduce bias, samples were chosen at random and the level of infection scored before noting the treatment conditions. Samples that were between two categories are marked accordingly; those samples that resembled one category more than another were marked with a capital “X” and the other with a lowercase “x”.\nWounded soybean cot-node explants prepared from the cultivar ‘Bert’ were co-cultivated with Agrobacterium on solid co-cultivation medium containing various levels of cysteine for 5 days."}, "soybean explants": {"system": "soybean explants", "assay": "Enzymatic browning and growth of soybean explants after co-cultivation", "type": "cell-based, Glycine max", "settings": "for enzymatic browning of soybean explants: cysteine (e.g., 400-1000 mg/l) in solid co-cultivation medium"}, "soybean": {"system": "soybean", "assay": "Production of transgenic soybean plants", "design": "species or system Glycine max", "settings": "cysteine 400-1000 mg/l"}, "[2]": {"system": "soybean cot-node explants", "assay": "GUS transient expression on soybean cot-node explants after 5-day co-cultivation with Agrobacterium (T-DNA delivery)", "type": "cell-based, Glycine max", "remark": "listed apart in the source"}, "[3]": {"system": "soybean cot-node explants", "assay": "De novo shoot production on explants at four weeks on shoot induction media", "type": "cell-based, Glycine max", "settings": "Experiment #4, Bert"}, "[4]": {"system": "Japonica rice meristem cultures", "settings": "individually or in combination; Enríguez-Obregón et al., 1999; cited from earlier work"}}, "note": "Entries after “also recorded” stand apart in the source; their conditions may differ."}
{"compound": "N[C@@H](CS)C(=O)O", "note": "[L-cysteine]", "values": [{"measurement": "infection, cysteine in solid co-culture media (experiments #4-#6)", "setting": "[1]; 0 or 400 mg/l cysteine in liquid and solid co-culture media", "value": "increased infection"}, {"measurement": "average frequency of explants containing a GUS+ focus at the cot-node", "setting": "[1]; 300 to 1000 mg/l cysteine in solid co-cultivation medium, Bert, AGL1 pBSF16, 5 days, 30% with no cysteine", "value": "~100", "unit": "%"}, {"measurement": "GUS staining scores, difference from 0 mg/l cysteine", "setting": "[1]; 400 and 1000 mg/l cysteine, α=0.05 (P<0.001)", "value": "significantly differ"}, {"measurement": "frequency of explants with at least one GUS+ focus, difference from 0 mg/l cysteine", "setting": "[1]; 400 and 1000 mg/l cysteine, α=0.05 (P<0.001), FIG. 1D", "value": "significantly differ"}, {"measurement": "frequency of explants with GUS+ foci at the cot-node, all genotypes", "setting": "[1]; 5 days co-cultivation, MN0901, A3237, MN1801, MN0301, Granite, MN1401, MN1301, Lambert", "value": "increase"}, {"measurement": "GUS+ staining after co-cultivation", "setting": "[1]; Bert, LBA4404 pTOK233, agent in solid co-cultivation media, concentrations of Table 1, 5-day incubation", "value": "increases"}, {"measurement": "infection (% of explants) at the entire cot-node region", "setting": "[1]; after 5-day incubation, cysteine containing solid co-culture media (100-400 mg/l L-cysteine), genotypes Bert, MN1301, MN0901, 50% of control explants", "value": "80-100%"}, {"measurement": "GUS+ foci at the 5-day interval", "setting": "[1]; amended to solid co-cultivation media", "value": "increase"}, {"measurement": "number of GUS+ foci per explant five days post-inoculation", "setting": "[1]; cysteine 400-1000 mg/l, eight independent experiments", "value": "increase"}, {"measurement": "frequency of GUS positive sectors/foci with strain LBA4404 pTOK233", "setting": "[1]; cysteine during co-cultivation vs control, 5 days", "value": "exceed in the frequency of GUS positive sectors over the control explants; also recorded: greater"}, {"measurement": "GUS positive sectors after co-cultivation (experiments #1-#3)", "setting": "[1]; cysteine, especially 300 and 400 mg/l, MN1301, MN0901, Bert", "value": "extensive GUS positive sectors"}, {"measurement": "frequency of explants with at least one GUS+ focus at the cot-node", "setting": "[1]; five days post-inoculation, cysteine 400-1000 mg/l, eight independent experiments, 30% without", "value": 100, "unit": "%"}, {"measurement": "callus growth on the hypocotyl", "setting": "soybean explants; co-cultivated in 1000 mg/l cysteine, 28 days", "value": "little callus growth on the hypocotyl"}, {"measurement": "growth of the hypocotyls of explants", "setting": "soybean explants; co-cultivated in 800 and 1000 mg/l cysteine, experiment #7", "value": "little to no growth of the hypocotyls"}, {"measurement": "enzymatic browning of soybean explants", "setting": "soybean explants; listed as Cysteine", "value": "decreased"}, {"measurement": "enzymatic browning of soybean explants", "setting": "soybean explants; listed as cysteine", "value": "less browning"}, {"measurement": "increase in production of transgenic plants", "setting": "soybean", "value": 2, "unit": "fold"}, {"measurement": "infection in genotypes that respond poorly to the cot-node method", "setting": "[2]; 400 mg/l cysteine, MN1401, Granite, Lambert, MN1801, MN0301", "value": "significant increase in infection"}, {"measurement": "GUS+ foci on 5 day explants, cysteine only in liquid media", "setting": "[2]; cysteine added only to liquid Agrobacterium culture (YEP) or liquid co-cultivation medium", "value": "did not increase; also recorded: no increases detected"}, {"measurement": "explants that developed de novo shoots", "setting": "[3]; 0S,400L", "value": 75, "unit": "%"}, {"measurement": "explants that developed de novo shoots", "setting": "[3]; 400L,0S (mg/l cysteine liquid, solid), control 0L,0S 76%", "value": 47, "unit": "%"}, {"measurement": "explants that developed de novo shoots", "setting": "[3]; 400L,400S", "value": 68, "unit": "%"}, {"measurement": "damage and viability of Japonica rice meristem cultures", "setting": "[4]", "value": "decreased damage and increased viability"}]}
